Experiments:
Type in all cases: in vivo
[1] = test system: diamond-back moth caterpillars (Plutella xylostella); test: Plutella test (cabbage leaves, immersion); settings: single active compound, 1.6 ppm
Description: (§1) To produce a suitable active compound preparation, 1 part by weight of active compound is mixed with the stated amounts of solvent and emulsifier, and the concentrate is diluted with emulsifier-containing water to the desired concentration.
Cabbage leaves (Brassica oleracea) are treated by immersion in the active compound preparation of the desired concentration and are populated with diamond-back moth caterpillars (Plutella xylostella) while the leaves are still moist.
(§2) After the desired period, the destruction is determined in %. 100% means that all caterpillars have been killed; 0% means that none of the caterpillars have been killed. The kill figures determined are calculated using Colby's formula.

[2] = test system: Heliothis virescens caterpillars; test: Heliothis virescens test (soya bean shoots, immersion); settings: single active compound, 0.32 ppm
Description: as §1
Soya bean shoots (Glycine max) are treated by immersion in the active compound preparation of the desired concentration and are populated with Heliothis virescens caterpillars while the leaves are still moist.
as §2

[3] = test system: green rice leaf-hoppers (Nephotettix cincticeps); test: Nephotettix test (rice seedlings, immersion); settings: single active compound, 0.32 ppm
Description: (§3) To produce a suitable preparation of active compound, 1 part by weight of active compound is mixed with the stated amounts of solvent and emulsifier, and the concentrate is diluted with emulsifier-containing water to the desired concentration.
Rice seedlings (Oryza sativa) are treated by immersion in the active compound preparation of the desired concentration and are populated with green rice leaf-hoppers (Nephotettix cincticeps) while the leaves are still moist.
After the desired period, the destruction is determined in %. 100% means that all leafhoppers have been killed; 0% means that none of the leafhoppers have been killed. The kill figures determined form the basis for calculations with Colby's formula.

[4] = test system: fall army worm caterpillars (Spodoptera exigua); test: Spodoptera exigua test (cabbage leaves, immersion); settings: single active compound, 8 ppm
Description: as §3
Cabbage leaves (Brassica oleracea) are treated by immersion in the active compound preparation of the desired concentration and are populated with fall army worm caterpillars (Spodoptera exigua) while the leaves are still moist.
as §2

[5] = test system: common spider mite (Tetranychus urticae); test: Tetranychus test (OP-resistant/spray treatment, bean plants); settings: single active compound, 0.32 ppm, OP-resistant, spray treatment
Description: OP-resistant/spray Treatment
as §1
Bean plants (Phaseolus vulgaris) which are severely infested with all stages of the common spider mite (Tetranychus urticae) are sprayed with an active compound preparation of the desired concentration.
After the desired period, the action is determined in %. 100% means that all spider mites have been killed; 0% means that none of the spider mites have been killed. The kill figures determined are calculated using Colby's formula.

In the case of `CC1(C)C(C=C(Cl)Cl)C1C(=O)OC(C#N)c1ccc(F)c(Oc2ccccc2)c1` (stereo not shown) [Betacyfluthrin, betacyfluthrin], the “Percentage destruction after 3 days” value [1] is reported as 80%, the “Percentage destruction after 3 days” value [2] is reported as 75% and the “Percentage destruction after 6 days” value [3] is reported as 50%. The “Percentage destruction after 6 days” value [4] was 90%.
In the case of `CCC(C)(C)C(=O)OC1=C(c2ccc(Cl)cc2Cl)C(=O)OC12CCCCC2` [Ex. (I-b-1)], the “Percentage destruction after 3 days” value [1] is reported as 0%, the “Percentage destruction after 3 days” value [2] is reported as 0% and the “Percentage destruction after 6 days” value [3] is reported as 0%. The “Percentage destruction after 14 days” value [5] was 0% and the “Percentage destruction after 6 days” value [4] was 0%.
`COP(N)(=O)SC` (stereo not shown) [Methamidophos, methamidophos] was tested, and the “Percentage destruction after 14 days” value [5] was 0%.

— patent US6818670B2, “Active ingredient combination having insecticidal and acaricidal characteristics” (priority 1999, dated 2004)
